Read-outs that look alike come from different tables or passages of the source.

The subject of data set [1] is L-FABP. To be noted: rat, in vivo.
The test system of data set [2] is liver fatty acid binding protein (L-FABP). Description: Proteomic analysis (2D gel electrophoresis) of L-FABP expression in liver of exposed rats. The note with it: for L-FABP (PHEN_M_ID=3368, ETHI_F_ID=4302, HEXA_F_ID=4425) spot under the influence of treatment: 2D gel, rat liver, after 10 d (RUN2), PHEN_M male, ETHI_F and HEXA_F female rats; for amount of L-FABP in the liver, early change: after only a few hours of exposure, male animals (phenobarbital), females (alpha-hexachlorocyclohexane); for expression in the liver of L-FABP (ETHI_F_ID 4302) compared with the controls: longer exposure time and higher dosage, dose-dependent, statistical analysis of 2D gels.

Data set [3] shares this test system. To be noted: rat, in vivo.

For `Cl[C@H]1[C@H](Cl)[C@H](Cl)[C@@H](Cl)[C@H](Cl)[C@H]1Cl` [alpha-hexachlorocyclohexane], in data set [1], the “L-FABP level by Western blotting” value is listed as “confirm the results of the proteomic analysis”. Moreover, in data set [2], the “L-FABP (PHEN_M_ID=3368, ETHI_F_ID=4302, HEXA_F_ID=4425) spot under the influence of treatment” value (shortened to “L-FABP … of treatment”) is “disappears”; the “amount of L-FABP in the liver, early change” value is recorded as “changed”; the “expression in the liver of L-FABP (ETHI_F_ID 4302) compared with the controls” value (shortened to “expression … compared with the controls”) is listed as “significantly less expression”.

With `C#C[C@]1(O)CC[C@H]2[C@@H]3CCc4cc(O)ccc4[C@H]3CC[C@@]21C` [ethinylestradiol], in data set [3], the “L-FABP … of treatment” value is “disappears” and the “expression … compared with the controls” value was “significantly less expression”.

On to `Cc1c(N)cccc1N` [2,6-diaminotoluene], for which the “L-FABP level by Western blotting” value in data set [1] was “no change in the L-FABP level”.

As for `ClC(Cl)(Cl)Cl` [tetrachloromethane], the “L-FABP level by Western blotting” value in data set [1] is reported as “decrease in L-FABP”.

As to `CCC1(c2ccccc2)C(=O)NC(=O)NC1=O` [phenobarbital], the “L-FABP level by Western blotting” value in data set [1] is on record as “confirm the results of the proteomic analysis”. For the same compound, in data set [2], the “L-FABP … of treatment” value is given as “disappears”; the “amount of L-FABP in the liver, early change” value is “changed”; the “expression … compared with the controls” value is given as “significantly less expression”.

For `c1ccoc1` [furan], the “L-FABP level by Western blotting” value in data set [1] is on record as “decrease in L-FABP”.

Consider `Cc1ccc(N)cc1N` [2,4-diaminotoluene], for which the “L-FABP level by Western blotting” value in data set [1] is “no change in the L-FABP level”.

The record behind these values is patent publication US20090123377A1, “Method for Testing Substances or Mixtures of Substances,Use of Said Method and Corresponding Test Kits” (BASF AKTIENGESELLSCHAFT, priority 2005, published 2009).
